Measured values from patent US20250171437A1 (Agios Pharmaceuticals,Inc., priority 2022, published 2025).

Biological target: T1, human PAH with the R408W mutation (A375 R408W cells) (Homo sapiens, UniProt P00439, R408W)
T1 construct: expressed in transfected cells
T1 sequence (P00439 1-452 R408W): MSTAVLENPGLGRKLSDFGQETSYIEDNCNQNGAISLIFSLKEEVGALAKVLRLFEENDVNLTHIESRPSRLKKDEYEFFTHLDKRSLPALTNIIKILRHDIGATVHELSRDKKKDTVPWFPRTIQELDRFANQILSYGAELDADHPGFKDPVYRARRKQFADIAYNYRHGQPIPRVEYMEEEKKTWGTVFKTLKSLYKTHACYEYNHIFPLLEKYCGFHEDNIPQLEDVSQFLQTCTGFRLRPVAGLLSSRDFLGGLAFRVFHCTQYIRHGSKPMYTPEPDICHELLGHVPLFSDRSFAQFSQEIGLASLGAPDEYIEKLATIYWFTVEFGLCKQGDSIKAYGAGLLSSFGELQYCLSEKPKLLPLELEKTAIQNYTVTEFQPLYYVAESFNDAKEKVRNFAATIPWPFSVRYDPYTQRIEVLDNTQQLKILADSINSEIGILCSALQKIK
Assay: Cell Based Phenylalanine Flux Assay
Conditions: 24 hrs with compound, then 20 μM sepiapterin and 800 μM 13C9,15N-Phenylalanine for 4 hours, 13C-Tyrosine by LC-MS, average where tested multiple times
Method in brief: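 Puromycin-selected A375 line, lentiviral hPAH R408W; cmpd 24 h, 37 °C, 5% CO2, 0.5% DMSO; then 20 μM sepiapterin + 800 μM 13C9,15N-Phe, 4 h; media extracted in 80% MeCN; 13C-Tyr by LC-MS; AC50 from 10-pt curves.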

[1] = A375 cells expressing R408W PAH

O=C(c1ccnn1C(F)F)N1Cc2[nH]cnc2[C@H]1c1nc2ccccc2o1 [Example 951, (S)-(4-(benzo[d]oxazol-2-yl)-4,6-dihydropyrrolo[3,4-d]imidazol-5(1H)-yl)(1-(difluoromethyl)-1H-pyrazol-5-yl)methanone]
AC50 (A375 R408W cells): 1000 to 5000 nM

CC(C)(O)c1nc(C(F)F)c(C(=O)N2CCc3[nH]cnc3[C@H]2c2nc3cccc(Br)c3o2)o1 [Example 460, (S)-(4-(7-bromobenzo[d]oxazol-2-yl)-6,7-dihydro-1H-imidazo[4,5-c]pyridin-5(4H)-yl)(4-(difluoromethyl)-2-(2-hydroxypropan-2-yl)oxazol-5-yl)methanone]
AC50 (A375 R408W cells): ≤ 500 nM

Cc1nc([C@@H](C)O)oc1C(=O)N1CCc2[nH]cnc2[C@H]1c1nc2cc(F)ccc2o1 [Example 135, ((S)-4-(5-fluorobenzo[d]oxazol-2-yl)-6,7-dihydro-1H-imidazo[4,5-c]pyridin-5(4H)-yl)(2-((R)-1-hydroxyethyl)-4-methyloxazol-5-yl)methanone]
AC50 (A375 R408W cells): 1000 to 5000 nM

O=C(c1cnn2cc(N3CCC4(CC3)CC4)ccc12)N1CCc2[nH]cnc2[C@@H]1c1nc2cccc(F)c2o1 [Example 396, (R)-(6-(6-azaspiro[2.5]octan-6-yl)pyrazolo[1,5-a]pyridin-3-yl)(4-(7-fluorobenzo[d]oxazol-2-yl)-6,7-dihydro-1H-imidazo[4,5-c]pyridin-5(4H)-yl)methanone]
AC50 (A375 R408W cells): 1000 to 5000 nM

O=C(c1ccnn1C(F)(F)F)N1CCc2[nH]cnc2[C@@H]1c1nc2cccc(F)c2o1 [Example 290, (R)-(4-(7-fluorobenzo[d]oxazol-2-yl)-6,7-dihydro-1H-imidazo[4,5-c]pyridin-5(4H)-yl)(1-(trifluoromethyl)-1H-pyrazol-5-yl)methanone]
AC50 (A375 R408W cells): 1000 to 5000 nM

N#Cc1nc(N2CCC(F)CC2)oc1C(=O)N1CCc2[nH]cnc2C1c1nc2cc(F)ccc2o1 (centres unmarked)
AC50 [1]: ≥ 5000 nM

CC(C)(O)c1ncc(C(=O)N2CCc3[nH]cnc3C2c2nc3ccc(F)c(F)c3o2)o1 (centres unmarked)
AC50 [1]: 1000 to 5000 nM

COc1ccc2oc(C3c4nc[nH]c4CCN3C(=O)c3cnco3)nc2c1 (centres unmarked) [listing 1 of 2 here]
AC50 [1]: 1000 to 5000 nM

CN(C)Cc1nnc(C(=O)N2CCc3[nH]cnc3C2c2nc3cc(F)ccc3o2)o1 (centres unmarked)
AC50 [1]: 1000 to 5000 nM

Cn1ccc(-c2nc(C(F)F)c(C(=O)N3CCc4[nH]cnc4[C@@H]3c3nc4cc(F)ccc4o3)o2)n1 [Example 412, (R)-(4-(difluoromethyl)-2-(1-methyl-1H-pyrazol-3-yl)oxazol-5-yl)(4-(5-fluorobenzo[d]oxazol-2-yl)-6,7-dihydro-1H-imidazo[4,5-c]pyridin-5(4H)-yl)methanone]
AC50 (A375 R408W cells): 500 to 1000 nM

O=C(c1nnc(-c2c(F)cccc2F)o1)N1CCc2[nH]cnc2[C@@H]1c1nc2cc(F)ccc2o1 [Example 26, (R)-(5-(2,6-difluorophenyl)-1,3,4-oxadiazol-2-yl)(4-(5-fluorobenzo[d]oxazol-2-yl)-6,7-dihydro-1H-imidazo[4,5-c]pyridin-5(4H)-yl)methanone]
AC50 (A375 R408W cells): 500 to 1000 nM

COCc1ccc2c(C(=O)N3CCc4[nH]cnc4C3c3nc4ccc(C)cc4o3)cnn2c1 (centres unmarked)
AC50 [1]: 1000 to 5000 nM

CC(C)(O)c1nc(C(F)F)c(C(=O)N2CCc3[nH]cnc3[C@H]2c2nc3c(F)cccc3o2)o1 [Example 199, (S)-(4-(difluoromethyl)-2-(2-hydroxypropan-2-yl)oxazol-5-yl)(4-(4-fluorobenzo[d]oxazol-2-yl)-6,7-dihydro-1H-imidazo[4,5-c]pyridin-5(4H)-yl)methanone]
AC50 (A375 R408W cells): ≤ 500 nM

CC(C)(O)c1nc(Br)c(C(=O)N2CCc3[nH]cnc3C2c2nc3cc(F)ccc3o2)s1 (centres unmarked)
AC50 [1]: ≥ 5000 nM

COc1ccc2oc([C@H]3c4nc[nH]c4CCN3C(=O)c3nnc(-c4ccccn4)o3)nc2c1 [Example 556, (R)-(4-(5-methoxybenzo[d]oxazol-2-yl)-6,7-dihydro-1H-imidazo[4,5-c]pyridin-5(4H)-yl)(5-(pyridin-2-yl)-1,3,4-oxadiazol-2-yl)methanone]
AC50 (A375 R408W cells): 1000 to 5000 nM

O=C(c1nnc(-c2cccnc2)o1)N1CCc2[nH]cnc2[C@@H]1c1nc2cc(F)ccc2o1 [Example 400, (R)-(4-(5-fluorobenzo[d]oxazol-2-yl)-6,7-dihydro-1H-imidazo[4,5-c]pyridin-5(4H)-yl)(5-(pyridin-3-yl)-1,3,4-oxadiazol-2-yl)methanone]
AC50 (A375 R408W cells): 1000 to 5000 nM

COc1cccc2nc([C@@H]3c4nc[nH]c4CCN3C(=O)c3ncnn3C)oc12 [Example 775, (S)-(4-(7-methoxybenzo[d]oxazol-2-yl)-6,7-dihydro-1H-imidazo[4,5-c]pyridin-5(4H)-yl)(1-methyl-1H-1,2,4-triazol-5-yl)methanone]
AC50 (A375 R408W cells): 500 to 1000 nM

O=C(c1cnn2cc(N3CCOCC3)ccc12)N1CCc2[nH]cnc2[C@H]1c1nc2cccc(F)c2o1 [Example 365, (S)-(4-(7-fluorobenzo[d]oxazol-2-yl)-6,7-dihydro-1H-imidazo[4,5-c]pyridin-5(4H)-yl)(6-morpholinopyrazolo[1,5-a]pyridin-3-yl)methanone]
AC50 (A375 R408W cells): 500 to 1000 nM

O=C(c1nnc(-c2ccccn2)o1)N1CCc2[nH]cnc2[C@H]1c1nc2ccccc2o1 [Example 583, (S)-(4-(benzo[d]oxazol-2-yl)-6,7-dihydro-1H-imidazo[4,5-c]pyridin-5(4H)-yl)(5-(pyridin-2-yl)-1,3,4-oxadiazol-2-yl)methanone]
AC50 (A375 R408W cells): ≤ 500 nM

Cn1nc(C(C)(C)O)nc1C(=O)N1CCc2[nH]cnc2C1c1nc2cccc(F)c2o1 (centres unmarked)
AC50 [1]: 1000 to 5000 nM

CC(C)(O)c1nc(Br)c(C(=O)N2CCc3[nH]cnc3[C@H]2c2nc3c(F)cccc3o2)o1 [Example 252, (S)-(4-bromo-2-(2-hydroxypropan-2-yl)oxazol-5-yl)(4-(4-fluorobenzo[d]oxazol-2-yl)-6,7-dihydro-1H-imidazo[4,5-c]pyridin-5(4H)-yl)methanone]
AC50 (A375 R408W cells): ≤ 500 nM

Cn1cc(-c2nnc(C(=O)N3CCc4[nH]cnc4[C@H]3c3nc4ccc(F)c(F)c4o3)o2)cn1 [Example 515, (S)-(4-(6,7-difluorobenzo[d]oxazol-2-yl)-6,7-dihydro-1H-imidazo[4,5-c]pyridin-5(4H)-yl)(5-(1-methyl-1H-pyrazol-4-yl)-1,3,4-oxadiazol-2-yl)methanone]
AC50 (A375 R408W cells): 500 to 1000 nM

CC(C)(O)c1ncc(C(=O)N2CCc3[nH]cnc3C2c2nc3cc(F)ccc3o2)o1 (centres unmarked)
AC50 [1]: 1000 to 5000 nM

O=C(c1oc(N2CCC(F)CC2)nc1C(F)F)N1CCc2[nH]cnc2[C@H]1c1nc2cc(F)ccc2o1 [Example 401, (S)-(4-(difluoromethyl)-2-(4-fluoropiperidin-1-yl)oxazol-5-yl)(4-(5-fluorobenzo[d]oxazol-2-yl)-6,7-dihydro-1H-imidazo[4,5-c]pyridin-5(4H)-yl)methanone]
AC50 (A375 R408W cells): ≤ 500 nM

O=C(c1oc(-c2ccncn2)nc1C(F)F)N1CCc2[nH]cnc2[C@H]1c1nc2cccc(F)c2o1 [Example 773, (S)-(4-(difluoromethyl)-2-(pyrimidin-4-yl)oxazol-5-yl)(4-(7-fluorobenzo[d]oxazol-2-yl)-6,7-dihydro-1H-imidazo[4,5-c]pyridin-5(4H)-yl)methanone]
AC50 (A375 R408W cells): ≤ 500 nM

Cc1ccc2nc([C@@H]3c4nc[nH]c4CCN3C(=O)c3nnc(-c4ccn(C)n4)o3)oc2c1 [Example 357, (S)-(5-(1-methyl-1H-pyrazol-3-yl)-1,3,4-oxadiazol-2-yl)(4-(6-methylbenzo[d]oxazol-2-yl)-6,7-dihydro-1H-imidazo[4,5-c]pyridin-5(4H)-yl)methanone]
AC50 (A375 R408W cells): 500 to 1000 nM

Cc1nc(-c2ccn(C)n2)oc1C(=O)N1CCc2[nH]cnc2[C@@H]1c1nc2cc(F)ccc2o1 [Example 826, (R)-(4-(5-fluorobenzo[d]oxazol-2-yl)-6,7-dihydro-1H-imidazo[4,5-c]pyridin-5(4H)-yl)(4-methyl-2-(1-methyl-1H-pyrazol-3-yl)oxazol-5-yl)methanone]
AC50 (A375 R408W cells): ≥ 5000 nM

Cc1ccc2nc([C@H]3c4nc[nH]c4CCN3C(=O)c3ocnc3C(F)F)oc2c1 [Example 883, (R)-(4-(difluoromethyl)oxazol-5-yl)(4-(6-methylbenzo[d]oxazol-2-yl)-6,7-dihydro-1H-imidazo[4,5-c]pyridin-5(4H)-yl)methanone]
AC50 (A375 R408W cells): 500 to 1000 nM

COc1ccc2oc(C3c4nc[nH]c4CCN3C(=O)c3cnco3)nc2c1 (centres unmarked) [listing 2 of 2 here]
AC50 [1]: ≥ 5000 nM

O=C(c1oc(C2CC2)nc1C(F)F)N1CCc2[nH]cnc2[C@@H]1c1nc2cc(F)ccc2o1 [Example 54, (R)-(2-cyclopropyl-4-(difluoromethyl)oxazol-5-yl)(4-(5-fluorobenzo[d]oxazol-2-yl)-6,7-dihydro-1H-imidazo[4,5-c]pyridin-5(4H)-yl)methanone]
AC50 (A375 R408W cells): 500 to 1000 nM

O=C(c1nnc(-c2ccn(C(F)F)n2)o1)N1CCc2[nH]cnc2[C@@H]1c1nc2cc(F)ccc2o1 [Example 114, (R)-(5-(1-(difluoromethyl)-1H-pyrazol-3-yl)-1,3,4-oxadiazol-2-yl)(4-(5-fluorobenzo[d]oxazol-2-yl)-6,7-dihydro-1H-imidazo[4,5-c]pyridin-5(4H)-yl)methanone]
AC50 (A375 R408W cells): 1000 to 5000 nM

Cn1cc(-c2nnc(C(=O)N3CCc4[nH]cnc4[C@@H]3c3nc4c(F)ccc(F)c4o3)o2)cn1 [Example 517, (R)-(4-(4,7-difluorobenzo[d]oxazol-2-yl)-6,7-dihydro-1H-imidazo[4,5-c]pyridin-5(4H)-yl)(5-(1-methyl-1H-pyrazol-4-yl)-1,3,4-oxadiazol-2-yl)methanone]
AC50 (A375 R408W cells): 1000 to 5000 nM
